Reference: patent US9518078B2, “Disaccharide synthetic lipid compounds and uses thereof” (AVANTI POLAR LIPIDS, INC., priority 2012, dated 2016)
Several values for one entry are separate records, joined by “and”; a condition that tells them apart may be missing. Equal entries are not always repeated.

Columns and labels:
human TLR-4 receptor = target: T1, human TLR-4 receptor (Homo sapiens, UniProt O00206+Q9Y6Y9); assay: NFκB-inducible secreted alkaline phosphatase reporter in HEK-293 cells over-expressing human TLR-4; assay type: cell-based; details: hTLR-4 HEK-293, 18 h
T1 construct: expressed in transfected cells; host or cells: HEK-293
Protocol: (§1) HEK-293 cell lines engineered to functionally over-express human or murine TLR-4 receptor were utilized in the experiments below. These cells also contain a reporter gene (a secreted alkaline phosphatase) under the control of a NFκB inducible promoter. TLR-4 activation results are given as optical density (OD) values after 18 hours stimulation of the designated HEK-293 cell lines.
(§2) Samples and controls are tested in duplicate on recombinant HEK-293 cell lines. The negative controls for the assay were the parental HEK-293 cell lines transfected only with the reporter gene. Negative control cells were stimulated with TNF-α, an inducer of NFκB activity. The positive controls for the assay were HEK-293 cells transfected with human TLR-4 (hTLR-4) or mouse TLR-4 (mTLR-4) along with the reporter construct and activated with LPS 0111 (obtained from E. coli 0111:B4 strain) from 100 ng/ml to 0.01 ng/ml or with LPS K12 (obtained from E. coli K12 strain) from 100 ng/ml to 0.01 ng/ml.
(§3) Another synthetic disaccharide lipid compound used in this assay in an independent experiment, was the compound of the structure XV (referred to herein as MPLA-C). […] Test compounds were used at the following concentrations: 5.7 μM/570 nM/171 nM/57 nM/17 nM/5.7 nM/well to stimulate in duplicate hTLR4 and mTLR4 expressing cell lines.

[1] = test system: murine parental cell line (mTLR); assay: Negative control: murine parental HEK-293 cell line transfected only with the reporter gene; assay type: cell-based, mouse; details: parental HEK-293, 18 h
Protocol: as §1, §2
Another synthetic disaccharide lipid compound used in this assay in an independent experiment was the compound of the structure X (referred to herein as MPLA-D). […] Test compounds were used at the following concentrations: 5.71 μM/570 nM/171 nM/57 nM/17 nM/5.7 nM/well to stimulate in duplicate mTLR4 expressing cell lines.
as §3

T1 sequence (O00206 24-839): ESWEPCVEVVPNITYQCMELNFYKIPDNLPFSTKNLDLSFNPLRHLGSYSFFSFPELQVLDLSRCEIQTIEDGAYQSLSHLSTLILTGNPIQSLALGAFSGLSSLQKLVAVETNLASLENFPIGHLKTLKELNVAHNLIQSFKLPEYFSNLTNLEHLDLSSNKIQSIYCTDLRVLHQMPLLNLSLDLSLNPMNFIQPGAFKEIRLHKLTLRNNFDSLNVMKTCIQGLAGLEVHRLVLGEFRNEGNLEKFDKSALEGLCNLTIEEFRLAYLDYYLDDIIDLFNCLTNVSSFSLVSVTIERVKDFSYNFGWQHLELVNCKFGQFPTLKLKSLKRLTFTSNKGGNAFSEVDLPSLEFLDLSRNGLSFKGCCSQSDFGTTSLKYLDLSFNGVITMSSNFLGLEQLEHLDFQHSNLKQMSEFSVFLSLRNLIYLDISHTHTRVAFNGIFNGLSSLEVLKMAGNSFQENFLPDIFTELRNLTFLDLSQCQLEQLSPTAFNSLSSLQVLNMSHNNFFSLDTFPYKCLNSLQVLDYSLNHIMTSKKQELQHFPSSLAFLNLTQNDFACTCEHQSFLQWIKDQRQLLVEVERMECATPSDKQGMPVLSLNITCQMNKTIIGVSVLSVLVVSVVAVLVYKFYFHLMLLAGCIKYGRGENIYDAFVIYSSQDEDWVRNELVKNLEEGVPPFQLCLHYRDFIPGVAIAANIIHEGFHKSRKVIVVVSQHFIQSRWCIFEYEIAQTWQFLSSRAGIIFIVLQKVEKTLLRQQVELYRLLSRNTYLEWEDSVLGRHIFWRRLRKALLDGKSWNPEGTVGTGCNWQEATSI
T1 sequence (Q9Y6Y9 17-160 limits assumed): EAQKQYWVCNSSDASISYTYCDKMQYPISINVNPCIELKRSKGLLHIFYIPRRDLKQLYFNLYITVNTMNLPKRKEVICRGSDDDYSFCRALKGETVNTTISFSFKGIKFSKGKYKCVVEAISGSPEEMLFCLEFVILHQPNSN

- TLR-4 activation, optical density (OD) (human TLR-4 receptor; 0.1 ng/ml): 0.275 OD
- TLR-4 activation, optical density (OD) (human TLR-4 receptor; 0.3 ng/ml): 0.577 OD
- TLR-4 activation, optical density (OD) (human TLR-4 receptor; 1 ng/ml): 0.899 OD
- TLR-4 activation, optical density (OD) (human TLR-4 receptor; 3 ng/ml): 1.135 OD
- TLR-4 activation, optical density (OD) (human TLR-4 receptor; 10 ng/ml): 1.262 OD
- TLR-4 activation, optical density (OD) (human TLR-4 receptor; 30 ng/ml): 1.387 OD
Substance: TNF-α
- NFκB reporter, optical density (OD), negative control cells ([1]; 0.3 ng/ml): 0.035 OD and 0.025 OD and 0.027 OD
- NFκB reporter, optical density (OD), negative control cells ([1]; 3 ng/ml): 0.033 OD and 0.027 OD and 0.024 OD
- NFκB reporter, optical density (OD), negative control cells ([1]; 30 ng/ml): 3.586 OD and 3.502 OD and 3.663 OD
